Source: patent US12728136B2, “Liposomal nano formulation of combinational antibiotics and the uses thereof” (Purdue Research Foundation, priority 2018, dated 2026)

What was measured:
Assay type in all cases: cell-based, Pseudomonas aeruginosa
P. aeruginosa H133880624 [1] = test: Minimum inhibitory concentration, broth microdilution; conditions: clinical isolate P. aeruginosa H133880624
Procedure: (§1) Briefly, fresh cultures of each strain were diluted in Cation-Adjusted Mueller-Hinton Broth (CAMHB; Mg^2+ at 12.2 mg/L and Ca^2+ at 23.0 mg/L [Oxoid, Hampshire, England]) giving an approximately inoculum of 10^^6 colony-forming units (CFU/ml) as the inocula. Drug concentrations of 0, 0.125, 0.25, 0.5, 1, 2, and 4 mg/L were derived from diluting the stock drug solution (5.12 mg/mL) with CAMHB.

P. aeruginosa H131300444 [2] = test: as above; conditions: clinical isolate P. aeruginosa H131300444
Procedure: as §1

P. aeruginosa H133880624 [3] = test: In vitro static time-kill experiment; conditions: colistin 2 mg/L and/or ciprofloxacin 8 mg/L; 0-24 hrs; FIG. 13B
Procedure: (§2) All samples were dissolved in CAMHB and all experiments were performed with an initial inoculum of ~10^6 CFU/mL in 20 mL of CAMHB in 50 mL pyrogen-free and sterile polypropylene tubes. […] Serial samples (50 μL) were obtained at 0, 1, 3, 6 and 24 hrs for viable cell counting and determination of drug concentrations. All samples were centrifuged at 12000×g for 10 min and cell pellets were resuspended in 0.9% saline and diluted accordingly for viable counting on nutrient agar plates. The bacteria were incubated at 37° C. for 24 hrs and the limit of detection was 20 CFU/mL (equivalent to one colony per plate). The colonies were counted with a ProtoCOL colony counter (Synbiosis, Cambridge, United Kingdom).

P. aeruginosa H131300444 [4] = test: In vitro static time-kill experiment; conditions: colistin 2 mg/L and/or ciprofloxacin 8 mg/L; 0-24 hrs; FIG. 13A
Procedure: as §2

Question: Colistin sulfate was tested. Which MIC (P. aeruginosa H133880624 [1]) did it give?
Answer: 128 mg/L

Question: And the MIC (P. aeruginosa H131300444 [2])?
Answer: 128 mg/L

Question: What about the time-kill profile (P. aeruginosa H133880624 [3]) of the same substance?
Answer: no antibacterial effect

Question: What about the time-kill profile (P. aeruginosa H131300444 [4]) of the same substance?
Answer: no antibacterial effect
